Experiments:
[1] = test system: Staphylococcus aureus; assay: antimicrobial testing by agar dilution, Staphylococcus aureus; format: cell-based; conditions: after 10, 20, 40 and 60 minutes at all dilutions 1:100, 1:200, 1:400, 1:800
Description: (§1) The antimicrobial properties of the 1-hexyl-5-(4-methoxyphenyl)-2,4-diphenyl-1H-imidazole was studied by the method of agar dilution. Test solutions of each compound was prepared in concentration of 1% using dimethylformamide as a solvent then they are diluted in physiological solution to obtain the final experimental dilutions 1:100, 1:200, 1:400, 1:800. The effect of these substances are compared with furacillin in a controllable study. The testing microbes used were gram positive bacteria Staphylococcus aureus, gram negative bacteria Escherichia coli, Pseudomonas aeruginosa and Candida albicans fungi were taken. The experiments used for this survey were meat-pentonlu agar (EPA) for cultivation of bacteria and Saburo environment for fungi. Each experiment used 1 ml of test solution on each plate 500 min. Add 2 drops of emulsified with microbes feel. All experimental samples were taken from the agar after 10, 20, 40, 60 minutes in the environment on the basis of Patrk planted. Bacteria were cultivated at a temperature of 37° C. for 1 day and the mushroom was kept in a thermostat for […] at a temperature of 28° C. Then the results were checked.

[2] = test system: Escherichia coli; assay: antimicrobial testing by agar dilution, Escherichia coli; format: cell-based; conditions: after 10, 20, 40 and 60 minutes at all dilutions 1:100, 1:200, 1:400, 1:800
Description: as §1

[3] = test system: Pseudomonas aeruginosa; assay: antimicrobial testing by agar dilution, Pseudomonas aeruginosa; format: cell-based; conditions: after 10, 20, 40 and 60 minutes at all dilutions 1:100, 1:200, 1:400, 1:800
Description: as §1

[4] = test system: Candida albicans; assay: antimicrobial testing by agar dilution, Candida albicans; format: cell-based; conditions: after 10, 20, 40 and 60 minutes at all dilutions 1:100, 1:200, 1:400, 1:800
Description: as §1

For `CCCCCCn1c(-c2ccccc2)nc(-c2ccccc2)c1-c1ccc(OC)cc1` [1-hexyl-5-(4-methoxyphenyl)-2,4-diphenyl-1H-imidazole], the “inhibition activity, Staphylococcus aureus” value [1] was “higher inhibition activity”, the “inhibition activity, Escherichia coli” value [2] was “higher inhibition activity” and the “inhibition activity, Pseudomonas aeruginosa” value [3] was “higher inhibition activity”. The “inhibition activity, Candida albicans” value [4] was “higher inhibition activity” and the melting point was 161 to 162 °C.

From patent publication US11970461B1, “1-hexyl-5-(4-methoxyphenyl)-2,4-diphenyl-1H-imidazole as an antimicrobial compound” (KING FAISAL UNIVERSITY, priority 2023, dated 2024)
